Among the data in patent publication US10080739B2, “Aryl imidazoles and their use as anti-cancer agents” (Aptose Biosciences Inc., priority 2003, dated 2018) are activity and formation of vacuoles values, retold here.

For one assay, the target named is T1, MKK4 (Mus musculus, UniProt P47809).
T1 construct: purchased Upstate Biotechnologies (kinase profiler service)
Nature of the assay: kinase profiler, MKK4. As to conditions: 10 μM compound, 100 μM ATP, mean of % control. The assay is classed as biochemical, human. The procedure:
(§1) Compound 45 was tested for its ability to function as a kinase inhibitor using the kinase profiler service from Upstate Biotechnologies. The general protocol employed is as follows: recombinant kinases were incubated with specific substrates, 10 mM MgAcetate, and [γ-^33P-ATP]. The reaction was initiated by the addition of MgATP mix. After incubation at room temperature for 40 minutes, the reaction was stopped by the addition of 5 μl of a 3% phosphoric acid solution. 10 μl of the reaction was then spotted on to a P30 filtermat and washed 3 times for 5 min. in 75 mM phosphoric acid and once in methanol prior to drying and scintillation counting. Each reaction was performed in duplicate with 100 μM ATP −/+10 μM compound 45. Results are presented in Table IV and are expressed as the mean of % control (no compound). PI 3-kinase-γ (PI3K-γ) activity was determined with the PIProfiler™ assay, which measures the binding of the GRP1 pleckstrin homology (PH) domain to PIP3, the product of PI3K acting on its physiological substrate PIP2.

The next assay addresses T2, MKK6 (Homo sapiens, UniProt P52564).
T2 construct: purchased Upstate Biotechnologies (kinase profiler service)
The assay is described as follows: kinase profiler, MKK6. The assay is classed as biochemical. The conditions noted are these: 10 μM compound, 100 μM ATP, mean of % control. The procedure:
as §1

A further assay has as its target T3, PI3K-δ (Homo sapiens, UniProt O00329).
T3 construct: purchased Upstate Biotechnologies (kinase profiler service)
Nature of the assay: kinase profiler, PI3K-δ. The assay is classed as biochemical. As to conditions: 10 μM compound, mean of % control. The procedure: as §1

The target of a further assay is T4, Fes (Homo sapiens, UniProt P07332).
T4 construct: purchased Upstate Biotechnologies (kinase profiler service)
Nature of the assay: kinase profiler, Fes. The assay is classed as biochemical. The conditions noted are these: 10 μM compound, 100 μM ATP, mean of % control. The protocol:
as §1

Another assay has as its target T5, MAPK2 (Homo sapiens, UniProt P28482).
T5 construct: purchased Upstate Biotechnologies (kinase profiler service)
Nature of the assay: kinase profiler, MAPK2. The assay is classed as biochemical. As to conditions: 10 μM compound, 100 μM ATP, mean of % control. The procedure: as §1

The target of a further assay is T6, CaMKIV (Homo sapiens, UniProt Q16566).
T6 construct: purchased Upstate Biotechnologies (kinase profiler service)
T6 sequence (Q16566 whole entry): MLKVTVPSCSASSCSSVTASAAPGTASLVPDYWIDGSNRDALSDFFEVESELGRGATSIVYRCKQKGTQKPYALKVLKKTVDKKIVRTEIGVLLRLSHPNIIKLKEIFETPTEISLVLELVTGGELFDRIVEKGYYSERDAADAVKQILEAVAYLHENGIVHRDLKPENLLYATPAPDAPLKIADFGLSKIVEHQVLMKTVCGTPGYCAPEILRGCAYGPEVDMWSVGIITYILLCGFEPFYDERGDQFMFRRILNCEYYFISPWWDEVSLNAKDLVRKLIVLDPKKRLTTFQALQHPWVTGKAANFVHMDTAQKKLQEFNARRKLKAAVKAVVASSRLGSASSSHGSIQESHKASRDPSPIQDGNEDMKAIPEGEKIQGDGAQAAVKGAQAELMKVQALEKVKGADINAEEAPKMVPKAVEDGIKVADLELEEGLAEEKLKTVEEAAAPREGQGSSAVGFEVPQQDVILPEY
Nature of the assay: kinase profiler, CaMKIV. The conditions noted are these: 10 μM compound, 100 μM ATP, mean of % control. The assay is classed as biochemical. The protocol:
as §1

A further assay has as its target T7, Fms (Homo sapiens, UniProt P07333).
T7 construct: purchased Upstate Biotechnologies (kinase profiler service)
The assay is described as follows: kinase profiler, Fms. The assay is classed as biochemical. The conditions noted are these: 10 μM compound, 100 μM ATP, mean of % control. The procedure: as §1

A further assay addresses T8, SAPK2b (Homo sapiens, UniProt Q15759).
T8 construct: purchased Upstate Biotechnologies (kinase profiler service)
Nature of the assay: kinase profiler, SAPK2b. The assay is classed as biochemical. The conditions noted are these: 10 μM compound, 100 μM ATP, mean of % control. The protocol: as §1

A further assay has as its target T9, SAPK2a (Homo sapiens, UniProt Q16539).
T9 construct: purchased Upstate Biotechnologies (kinase profiler service)
Nature of the assay: kinase profiler, SAPK2a. The conditions noted are these: 10 μM compound, 100 μM ATP, mean of % control. The assay is classed as biochemical. The protocol:
as §1

Another assay concerns the target T10, PI 3-kinase-γ (PI3K-γ) (Homo sapiens, UniProt P48736).
T10 construct: purchased Upstate Biotechnologies (kinase profiler / PIProfiler service)
The assay is described as follows: PIProfiler assay, PI3K-γ. The assay is classed as biochemical. As to conditions: PI3K[…] (PI3Kγ), 10 μM compound, mean of % control. The procedure: as §1

Another assay deals with T11, EphB4 (Homo sapiens, UniProt P54760).
T11 construct: purchased Upstate Biotechnologies (kinase profiler service)
The assay is described as follows: kinase profiler, EphB4. The assay is classed as biochemical. The conditions noted are these: 10 μM compound, 100 μM ATP, mean of % control. The protocol:
as §1

The target in the next assay is T12, CDK7/cyclinH/MAT1 (Homo sapiens, UniProt P50613).
T12 construct: purchased Upstate Biotechnologies (kinase profiler service)
T12 sequence (P50613 whole entry): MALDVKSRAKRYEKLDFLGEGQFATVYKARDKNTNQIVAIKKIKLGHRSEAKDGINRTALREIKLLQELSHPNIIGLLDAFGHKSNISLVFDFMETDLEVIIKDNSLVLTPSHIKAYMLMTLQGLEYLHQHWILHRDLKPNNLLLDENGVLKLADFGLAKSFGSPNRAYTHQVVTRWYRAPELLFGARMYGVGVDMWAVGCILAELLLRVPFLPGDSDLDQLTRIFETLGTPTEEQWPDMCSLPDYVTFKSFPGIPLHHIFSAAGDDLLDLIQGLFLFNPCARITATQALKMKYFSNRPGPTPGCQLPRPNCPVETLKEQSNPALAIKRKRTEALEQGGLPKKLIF
T12 sequence (P51946 whole entry partner): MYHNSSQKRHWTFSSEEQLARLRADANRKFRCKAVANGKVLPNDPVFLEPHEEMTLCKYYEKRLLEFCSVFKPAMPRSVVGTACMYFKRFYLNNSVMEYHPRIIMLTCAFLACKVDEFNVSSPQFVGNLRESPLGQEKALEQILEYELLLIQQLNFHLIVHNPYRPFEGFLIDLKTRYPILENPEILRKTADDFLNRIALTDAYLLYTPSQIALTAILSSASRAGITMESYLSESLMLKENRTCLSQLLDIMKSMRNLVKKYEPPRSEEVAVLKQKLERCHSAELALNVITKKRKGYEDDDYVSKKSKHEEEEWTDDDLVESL
T12 sequence (P51948 whole entry partner): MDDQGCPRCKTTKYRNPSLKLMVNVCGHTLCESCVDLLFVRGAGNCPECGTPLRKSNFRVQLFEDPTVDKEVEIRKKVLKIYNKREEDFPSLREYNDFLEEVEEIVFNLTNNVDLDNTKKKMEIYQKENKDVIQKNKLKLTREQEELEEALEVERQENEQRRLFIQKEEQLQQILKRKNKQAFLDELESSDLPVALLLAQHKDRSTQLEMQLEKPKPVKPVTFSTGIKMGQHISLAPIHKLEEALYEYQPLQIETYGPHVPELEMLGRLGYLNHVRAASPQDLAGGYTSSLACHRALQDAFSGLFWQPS
The assay is described as follows: kinase profiler, CDK7/cyclinH/MAT1. The assay is classed as biochemical. The conditions noted are these: 10 μM compound, 100 μM ATP, mean of % control. The procedure:
as §1

In a further assay the target is T13, Ax1 (Homo sapiens, UniProt P30530).
T13 construct: purchased Upstate Biotechnologies (kinase profiler service)
The assay is described as follows: kinase profiler, Ax1. The conditions noted are these: 10 μM compound, 100 μM ATP, mean of % control. The assay is classed as biochemical. The procedure:
as §1

The next assay has as its target T14, Rse (Homo sapiens, UniProt Q06418).
T14 construct: purchased Upstate Biotechnologies (kinase profiler service)
Nature of the assay: kinase profiler, Rse. The assay is classed as biochemical. The conditions noted are these: 10 μM compound, 100 μM ATP, mean of % control. The procedure:
as §1

The target of another assay is T15, JNK3 (Homo sapiens, UniProt P53779).
T15 construct: purchased Upstate Biotechnologies (kinase profiler service)
T15 sequence (P53779 whole entry): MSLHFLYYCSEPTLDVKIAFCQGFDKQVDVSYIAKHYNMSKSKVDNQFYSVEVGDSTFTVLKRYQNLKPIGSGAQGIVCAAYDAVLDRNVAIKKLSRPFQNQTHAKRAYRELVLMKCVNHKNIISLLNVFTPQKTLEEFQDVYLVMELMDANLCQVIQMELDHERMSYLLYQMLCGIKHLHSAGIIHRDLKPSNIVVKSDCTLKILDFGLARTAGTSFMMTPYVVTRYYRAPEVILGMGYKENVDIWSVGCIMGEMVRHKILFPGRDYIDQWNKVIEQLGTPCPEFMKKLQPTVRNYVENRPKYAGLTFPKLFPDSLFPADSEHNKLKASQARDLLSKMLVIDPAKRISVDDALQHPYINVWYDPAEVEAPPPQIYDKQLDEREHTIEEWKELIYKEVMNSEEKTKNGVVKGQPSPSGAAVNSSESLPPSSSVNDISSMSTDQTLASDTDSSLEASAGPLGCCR
Nature of the assay: kinase profiler, JNK3. The conditions noted are these: 10 μM compound, 100 μM ATP, mean of % control. The assay is classed as biochemical. The protocol:
as §1

For assay [1], the system named is HT29 colon adenocarcinoma cells. Nature of the assay: morphological changes (vacuoles), HT29. The assay is classed as cell-based, human. The conditions noted are these: treatment for 24 hours. The text has this:
(§2) These vacuoles are not formed in DMSO- or doxorubicin-treated cells. Moreover, the nuclear membrane is no longer evident in the phase-contrast images of cells treated with compound 45, even though the nucleus is still intact, as shown by DAPI staining.

In a further assay the target is T16, GSK3α (Homo sapiens, UniProt P49840).
T16 construct: purchased Upstate Biotechnologies (kinase profiler service)
Nature of the assay: kinase profiler, GSK3α. The assay is classed as biochemical. The conditions noted are these: 10 μM compound, 100 μM ATP, mean of % control. The protocol: as §1

In another assay the target is T17, Lyn (Homo sapiens, UniProt P07948).
T17 construct: purchased Upstate Biotechnologies (kinase profiler service)
Nature of the assay: kinase profiler, Lyn. The assay is classed as biochemical. The conditions noted are these: 10 μM compound, 100 μM ATP, mean of % control. The procedure:
as §1

For a further assay, the target named is T18, PAK2 (Homo sapiens, UniProt Q13177).
T18 construct: purchased Upstate Biotechnologies (kinase profiler service)
Nature of the assay: kinase profiler, PAK2. The assay is classed as biochemical. The conditions noted are these: 10 μM compound, 100 μM ATP, mean of % control. The protocol:
as §1

The subject of assay [2] is MDA-MB-231 breast adenocarcinoma cells. Nature of the assay: morphological changes (vacuoles), MDA-MB-231. The assay is classed as cell-based, human. The conditions noted are these: MDA-MB-231 cells, treatment for 24 hours.
Text: as §2

Another assay has as its target T19, PDK1 (Homo sapiens, UniProt O15530).
T19 construct: purchased Upstate Biotechnologies (kinase profiler service)
The assay is described as follows: kinase profiler, PDK1. The assay is classed as biochemical. As to conditions: 10 μM compound, 100 μM ATP, mean of % control. The protocol: as §1

A further assay concerns the target T20, MINK (Homo sapiens, UniProt Q8N4C8).
T20 construct: purchased Upstate Biotechnologies (kinase profiler service)
Nature of the assay: kinase profiler, MINK. The assay is classed as biochemical. The conditions noted are these: 10 μM compound, 100 μM ATP, mean of % control. The protocol:
as §1

The next assay deals with T21, FGFR3 (Homo sapiens, UniProt P22607).
T21 construct: purchased Upstate Biotechnologies (kinase profiler service)
Nature of the assay: kinase profiler, FGFR3. As to conditions: 10 μM compound, 100 μM ATP, mean of % control. The assay is classed as biochemical. The protocol:
as §1

T10 sequence (P48736 whole entry): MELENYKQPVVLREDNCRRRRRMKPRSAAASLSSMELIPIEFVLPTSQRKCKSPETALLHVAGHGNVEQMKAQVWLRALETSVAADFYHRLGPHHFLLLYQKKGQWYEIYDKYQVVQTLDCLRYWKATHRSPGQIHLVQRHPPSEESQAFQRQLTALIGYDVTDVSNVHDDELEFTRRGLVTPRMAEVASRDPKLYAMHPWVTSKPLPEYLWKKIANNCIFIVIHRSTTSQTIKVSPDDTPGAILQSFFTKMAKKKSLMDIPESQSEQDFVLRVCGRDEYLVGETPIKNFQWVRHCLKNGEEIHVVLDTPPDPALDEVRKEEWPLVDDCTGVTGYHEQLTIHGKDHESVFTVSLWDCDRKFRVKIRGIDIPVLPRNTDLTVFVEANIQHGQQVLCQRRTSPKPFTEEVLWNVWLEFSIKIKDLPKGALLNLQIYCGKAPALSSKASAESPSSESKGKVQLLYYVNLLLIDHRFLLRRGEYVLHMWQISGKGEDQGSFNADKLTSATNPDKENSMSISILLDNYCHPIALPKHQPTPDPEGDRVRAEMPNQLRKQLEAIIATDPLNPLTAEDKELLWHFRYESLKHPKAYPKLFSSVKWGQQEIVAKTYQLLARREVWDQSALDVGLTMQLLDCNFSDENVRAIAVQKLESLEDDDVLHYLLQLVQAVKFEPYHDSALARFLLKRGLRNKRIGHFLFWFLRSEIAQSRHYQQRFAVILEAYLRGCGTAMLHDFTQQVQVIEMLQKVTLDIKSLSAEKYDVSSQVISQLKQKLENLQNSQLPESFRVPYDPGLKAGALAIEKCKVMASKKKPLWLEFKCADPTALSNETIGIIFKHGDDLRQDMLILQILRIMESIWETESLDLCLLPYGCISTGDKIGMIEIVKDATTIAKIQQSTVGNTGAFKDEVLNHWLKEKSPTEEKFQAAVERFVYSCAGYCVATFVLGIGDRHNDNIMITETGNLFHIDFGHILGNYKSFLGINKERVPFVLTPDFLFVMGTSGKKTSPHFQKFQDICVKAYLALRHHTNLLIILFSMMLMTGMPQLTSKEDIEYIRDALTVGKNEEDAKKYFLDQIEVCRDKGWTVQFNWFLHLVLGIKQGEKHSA
T1 sequence (P47809 whole entry): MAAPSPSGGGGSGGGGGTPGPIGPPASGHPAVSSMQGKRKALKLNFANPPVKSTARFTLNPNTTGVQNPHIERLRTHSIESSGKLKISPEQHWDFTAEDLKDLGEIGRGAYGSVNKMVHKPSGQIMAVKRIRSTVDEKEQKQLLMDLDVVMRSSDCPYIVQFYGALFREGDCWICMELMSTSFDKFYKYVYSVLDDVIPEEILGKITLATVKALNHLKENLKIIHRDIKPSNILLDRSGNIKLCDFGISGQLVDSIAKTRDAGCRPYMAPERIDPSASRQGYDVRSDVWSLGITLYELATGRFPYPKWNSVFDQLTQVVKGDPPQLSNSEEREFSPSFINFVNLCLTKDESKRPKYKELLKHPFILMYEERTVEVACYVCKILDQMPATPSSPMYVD
T20 sequence (Q8N4C8 whole entry): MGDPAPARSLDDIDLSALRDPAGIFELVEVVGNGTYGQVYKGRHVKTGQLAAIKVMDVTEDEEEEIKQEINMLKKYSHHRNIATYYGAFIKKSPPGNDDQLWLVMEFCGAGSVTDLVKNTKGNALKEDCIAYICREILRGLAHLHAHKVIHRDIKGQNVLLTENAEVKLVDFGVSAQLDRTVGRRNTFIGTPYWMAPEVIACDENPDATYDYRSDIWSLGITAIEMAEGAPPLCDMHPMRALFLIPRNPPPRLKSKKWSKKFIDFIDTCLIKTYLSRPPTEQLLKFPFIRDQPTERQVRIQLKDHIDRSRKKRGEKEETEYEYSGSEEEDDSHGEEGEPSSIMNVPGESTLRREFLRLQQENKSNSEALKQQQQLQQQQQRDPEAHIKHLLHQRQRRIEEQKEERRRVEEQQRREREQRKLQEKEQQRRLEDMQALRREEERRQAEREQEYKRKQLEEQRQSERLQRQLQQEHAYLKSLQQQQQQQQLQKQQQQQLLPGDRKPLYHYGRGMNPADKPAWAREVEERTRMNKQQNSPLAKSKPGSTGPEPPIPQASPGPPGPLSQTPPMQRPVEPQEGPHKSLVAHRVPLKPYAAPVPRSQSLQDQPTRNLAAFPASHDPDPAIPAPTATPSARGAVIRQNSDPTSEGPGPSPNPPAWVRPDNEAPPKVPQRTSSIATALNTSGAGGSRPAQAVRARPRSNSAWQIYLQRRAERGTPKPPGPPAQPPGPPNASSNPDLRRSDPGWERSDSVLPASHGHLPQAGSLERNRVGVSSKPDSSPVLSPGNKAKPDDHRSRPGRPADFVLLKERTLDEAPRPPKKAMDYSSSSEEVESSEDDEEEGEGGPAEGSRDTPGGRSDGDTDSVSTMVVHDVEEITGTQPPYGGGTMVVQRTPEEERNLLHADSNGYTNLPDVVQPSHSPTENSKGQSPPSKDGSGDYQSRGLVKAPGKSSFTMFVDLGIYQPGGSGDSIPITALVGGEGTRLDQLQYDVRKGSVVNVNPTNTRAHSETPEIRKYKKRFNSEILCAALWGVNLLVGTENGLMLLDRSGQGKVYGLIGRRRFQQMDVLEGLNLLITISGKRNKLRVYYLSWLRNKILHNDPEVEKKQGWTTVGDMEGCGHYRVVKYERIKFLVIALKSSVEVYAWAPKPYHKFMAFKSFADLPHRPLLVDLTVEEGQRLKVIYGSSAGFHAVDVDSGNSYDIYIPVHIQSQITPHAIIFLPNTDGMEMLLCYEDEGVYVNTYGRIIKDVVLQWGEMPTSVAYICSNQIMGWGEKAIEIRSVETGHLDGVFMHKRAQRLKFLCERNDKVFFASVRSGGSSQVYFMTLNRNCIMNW

For `Brc1ccc2[nH]cc(-c3nc4c5ccccc5c5ccccc5c4[nH]3)c2c1` [Compound 45], the activity at 10 µM on MKK4 turned out to be 96%; at MKK6 it was 86%; at PI3K-δ, 9%; on Fes, 99%; at MAPK2, 99%; on CaMKIV, 98%. The activity at 10 µM was found to be 135% at Fms; 80% at SAPK2b; 62% on SAPK2a; 22% on PI 3-kinase-γ (PI3K-γ); 95% at EphB4; 95% at CDK7/cyclinH/MAT1. In addition, the activity at 10 µM was determined as 100% at Ax1; 176% on Rse; 121% at JNK3; 96% at GSK3α; 81% at Lyn; 89% on PAK2. The activity at 10 µM at PDK1 is 106%; on MINK, 91%; at FGFR3, 82%. In addition, the formation of vacuoles entry in assay [1] and in assay [2] was “formation of large vacuoles within the cytoplasm” in each case.
